{"source": "patent US11123432B2", "about": "“Antimicrobial insect repellent composition” (YEDITEPE UNIVERSITESi, priority 2016, dated 2021)", "key": {"Poliovirus Type 1 (PV-1)": {"tested_on": "Poliovirus Type 1 (PV-1)", "type": "cell-based, Poliovirus type 1 Chat strain", "conditions": "for reduction in virus titer: PV-1 (Table 5), ratio 1/1, 20° C., clean and contaminated media; for Ratio of reduction in virus titer: EBAAP; for EBAAP virus titer: untreated virus titer 5.0"}, "Adenovirus Type 5 (Av-5)": {"tested_on": "Adenovirus Type 5 (Av-5)", "type": "cell-based, Human adenovirus type 5 Adenoid 75 strain", "conditions": "for reduction in virus titer: AV-5 (Table 4), ratio 1/1, 20° C., clean and contaminated media; for Ratio of reduction in virus titer: EBAAP; for EBAAP virüs titer: untreated virus titer 6.0"}, "[1]": {"conditions": "result of many toxicity experiments; cited from earlier work"}, "enteric bacteria": {"tested_on": "enteric bacteria", "conditions": "Bailey et al. (1980); cited from earlier work"}, "Penicillium expansium": {"tested_on": "Penicillium expansium", "conditions": "Qin et al. (2007); cited from earlier work"}, "[2]": {"conditions": "PV-1, 5 minutes, contaminated medium"}, "[3]": {"conditions": "PV-1, 60 minutes, contaminated medium"}, "[4]": {"conditions": "AV-5, 5 minutes, contaminated medium"}, "[5]": {"conditions": "AV-5, 60 minutes, contaminated medium"}}, "note": "Read-outs that look alike come from different tables or passages of the source."}
{"smiles": "CCCCN(CCC(=O)OCC)C(C)=O", "note": "[EBAAP, Ethyl Butyl acetylaminopropionate]", "values": [{"measurement": "reduction in virus titer", "setting": "Poliovirus Type 1 (PV-1); 5 minutes", "value": 2, "unit": "log"}, {"measurement": "reduction in virus titer", "setting": "Poliovirus Type 1 (PV-1); 60 minutes", "value": 4, "unit": "log"}, {"measurement": "Ratio of reduction in virus titer", "setting": "Poliovirus Type 1 (PV-1); PV-1, 5 minutes, clean medium", "value": 2.0, "unit": "Logarithmic TCID50"}, {"measurement": "EBAAP virus titer", "setting": "Poliovirus Type 1 (PV-1); PV-1, 5 minutes, clean medium", "value": 3.0, "unit": "Logarithmic TCID50"}, {"measurement": "Ratio of reduction in virus titer", "setting": "Poliovirus Type 1 (PV-1); [2]", "value": 2.0, "unit": "Logarithmic TCID50"}, {"measurement": "EBAAP virus titer", "setting": "Poliovirus Type 1 (PV-1); [2]", "value": 3.0, "unit": "Logarithmic TCID50"}, {"measurement": "Ratio of reduction in virus titer", "setting": "Poliovirus Type 1 (PV-1); PV-1, 60 minutes, clean medium", "value": 4.0, "unit": "Logarithmic TCID50"}, {"measurement": "EBAAP virus titer", "setting": "Poliovirus Type 1 (PV-1); PV-1, 60 minutes, clean medium", "value": 1.0, "unit": "Logarithmic TCID50"}, {"measurement": "Ratio of reduction in virus titer", "setting": "Poliovirus Type 1 (PV-1); [3]", "value": 4.0, "unit": "Logarithmic TCID50"}, {"measurement": "EBAAP virus titer", "setting": "Poliovirus Type 1 (PV-1); [3]", "value": 1.0, "unit": "Logarithmic TCID50"}, {"measurement": "active against virus", "setting": "Poliovirus Type 1 (PV-1); PV-1, used undiluted, 20° C., 60 minute application", "value": 99.9, "unit": "%"}, {"measurement": "reduction in virus titer", "setting": "Adenovirus Type 5 (Av-5); 5 minutes", "value": 2, "unit": "log"}, {"measurement": "reduction in virus titer", "setting": "Adenovirus Type 5 (Av-5); 60 minutes", "value": 4, "unit": "log"}, {"measurement": "Ratio of reduction in virus titer", "setting": "Adenovirus Type 5 (Av-5); AV-5, 5 minutes, clean medium", "value": 2.0, "unit": "Logarithmic TCID50"}, {"measurement": "EBAAP virüs titer", "setting": "Adenovirus Type 5 (Av-5); AV-5, 5 minutes, clean medium", "value": 4.0, "unit": "Logarithmic TCID50"}, {"measurement": "Ratio of reduction in virus titer", "setting": "Adenovirus Type 5 (Av-5); [4]", "value": 2.0, "unit": "Logarithmic TCID50"}, {"measurement": "EBAAP virüs titer", "setting": "Adenovirus Type 5 (Av-5); [4]", "value": 4.0, "unit": "Logarithmic TCID50"}, {"measurement": "Ratio of reduction in virus titer", "setting": "Adenovirus Type 5 (Av-5); AV-5, 60 minutes, clean medium", "value": 4.0, "unit": "Logarithmic TCID50"}, {"measurement": "EBAAP virüs titer", "setting": "Adenovirus Type 5 (Av-5); AV-5, 60 minutes, clean medium", "value": 2.0, "unit": "Logarithmic TCID50"}, {"measurement": "Ratio of reduction in virus titer", "setting": "Adenovirus Type 5 (Av-5); [5]", "value": 4.0, "unit": "Logarithmic TCID50"}, {"measurement": "EBAAP virüs titer", "setting": "Adenovirus Type 5 (Av-5); [5]", "value": 2.0, "unit": "Logarithmic TCID50"}, {"measurement": "active against virus", "setting": "Adenovirus Type 5 (Av-5); AV-5, used undiluted, 20° C., 60 minute application", "value": 99.9, "unit": "%"}, {"measurement": "irritation on the skin", "setting": "[1]", "value": "does not cause irritation on the skin"}]}
{"smiles": "OB(O)O", "note": "[boric acid]", "values": [{"measurement": "antibacterial activity", "setting": "enteric bacteria", "value": "has antibacterial activity"}]}
{"smiles": "[K+].[K+].[O-]B1OB2OB([O-])OB(O1)O2", "note": "[potassium tetraborate]", "values": [{"measurement": "minimum concentration preventing micelle growth", "setting": "Penicillium expansium", "value": 0.1, "unit": "%"}]}
